Measured values: US20160024114A1, “MACROCYCLIC RIP2 KINASE INHIBITORS” (ONCODESIGN S.A, priority 2013, published 2016)

Molecular target: RIP2 recombinant protein (Homo sapiens, UniProt O43353)
Experiment: radiometric protein kinase assay (33PanQinase Activity Assay), in vitro peptide-based kinase assay
Type: biochemical
Conditions: for remaining activity at 0.1 µM / remaining activity at 1 µM: 1 h; for remaining activity at 0.1 µM: compound at 0.1 μM; for remaining activity at 1 µM: compound at 1 μM; for IC50: ATP 3.0 μM, RIP2 15.7 nM, substrate RBER-Chktide
Method: The inhibition of RIP2 kinase was assessed using RIP2 recombinant protein in an in vitro peptide-based kinase assay.
A radiometric protein kinase assay (^33PanQinase® (^33PanQinase Activity Assay) is used for measuring the kinase activity. All assays are performed in 96-well FlashPlates™ from Perkin Elmer in a 50 μl reaction volume. The reaction cocktail is pipetted in 4 steps in the following order:
10 μl of non-radioactive ATP solution (in H2O)
25 μl of assay buffer/[γ-^33P]-ATP mixture
5 μl of test sample in 10% DMSO
10 μl of enzyme/substrate mixture
The assay for RIP2 contains 70 mM HEPES-NaOH pH 7.5, 3 mM MgCl2, 3 mM MnCl2, 3 μM Na-orthovanadate, 1.2 mM DTT, 50 μg/ml PEG20000, ATP (3.0 μM), [γ-^33P]-ATP (approx. 5×10^05 cpm per well), protein kinase RIP2 (15.7 nM) and substrate (RBER-Chktide), 2.0 μg/50 μl). The reaction cocktails were incubated at 30° C. for 60 minutes. The reaction was stopped with 50 μl of 2% (v/v) H3PO4, plates were aspirated and washed two times with 200 μl 0.9% (w/v) NaCl. Incorporation of ^33Pi (counting of “cpm”) was determined with a microplate scintillation counter.
The compounds are dissolved to 10 mM in DMSO. Where needed, solutions are sonicated in a bath sonicator.
Table 4 provides the pIC50 values and % Remaining activity values at two concentrations (1 μM and 0.1 μM) of the compounds according to the invention, obtained using the above mentioned kinase assay.

RIP2 recombinant protein, sequence (O43353 whole entry): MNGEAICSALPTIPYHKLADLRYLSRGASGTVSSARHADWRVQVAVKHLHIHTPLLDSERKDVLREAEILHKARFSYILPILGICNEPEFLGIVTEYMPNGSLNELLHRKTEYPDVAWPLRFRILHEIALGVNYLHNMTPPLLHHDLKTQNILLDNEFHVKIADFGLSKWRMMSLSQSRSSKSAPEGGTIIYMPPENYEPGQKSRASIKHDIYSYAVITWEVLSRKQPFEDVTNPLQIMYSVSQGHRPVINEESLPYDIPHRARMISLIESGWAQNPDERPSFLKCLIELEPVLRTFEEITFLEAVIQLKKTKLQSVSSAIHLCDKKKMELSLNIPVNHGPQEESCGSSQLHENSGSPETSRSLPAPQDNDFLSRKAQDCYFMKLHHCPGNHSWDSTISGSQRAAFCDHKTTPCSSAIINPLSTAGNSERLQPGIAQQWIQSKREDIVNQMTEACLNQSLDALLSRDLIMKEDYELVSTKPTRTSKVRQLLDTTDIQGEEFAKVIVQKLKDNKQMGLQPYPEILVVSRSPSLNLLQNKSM

Row | remaining activity at 0.1 µM | remaining activity at 1 µM | IC50 | Structure (SMILES)
1 | < 50% | < 50% |  | COCCC(=O)N1CCCN(C)c2cccc(c2)-c2cnn3ccc(nc23)NCC1 [Compound B19]
2 | < 50% | < 50% | < 0.1 µM | NC(=O)c1ccc2cc1OCC(=O)NCCCNc1ccn3ncc-2c3n1 [Compound B21]
3 | < 50% | < 50% | < 0.1 µM | O=C(CN1CCOCC1)N1CCNc2ccn3ncc(c3n2)-c2cccc(c2)OCC1 [Compound B36]
4 | < 50% | < 50% | < 0.1 µM | CN(C)CCN1CCN(C(=O)C2CC2)CCOc2cccc(c2)-c2cnn3ccc1nc23 [Compound B48]
5 | < 50% | < 50% | 0.1 to 1 µM | O=C1CCNc2ccn3ncc(c3n2)-c2cc(F)cc(c2)OCCN1 [Compound B74]
6 | > 50% | < 50% | 0.1 to 1 µM | CN1CCN(C(=O)C2CC2)CCNc2ccn3ncc(c3n2)-c2cccc(c2)C1 [Compound B76]
7 | < 50% | < 50% | < 0.1 µM | CCCCN1CCNc2ccn3ncc(c3n2)-c2cc(F)cc(c2)OCC1 [Compound F81]
8 | < 50% | < 50% | < 0.1 µM | Fc1cc2cc(c1)-c1cnn3ccc(nc13)NCCN(C1CCOCC1)CCO2 [Compound F82]
9 | < 50% | < 50% | < 0.1 µM | CCC(C)N1CCNc2ccn3ncc(c3n2)-c2cc(F)cc(c2)OCC1 (stereo not shown) [Compound F83]
10 | < 50% | < 50% | 0.1 to 1 µM | Fc1cc2cc(c1)-c1cnn3ccc(nc13)NCCN(C1CCC3(CC1)OCCO3)CCO2 [Compound F84]
11 | < 50% | < 50% | < 0.1 µM | COCCN1CCCNc2ccn3ncc(c3n2)-c2cc(F)cc(c2)OCC1 [Compound F86]
12 | < 50% | < 50% | < 0.1 µM | COCCN1CCCOc2cc(F)cc(c2)-c2cnn3ccc(nc23)NCC1 [Compound F87]
13 | < 50% | < 50% | < 0.1 µM | COCCN1CCCNc2ccn3ncc(c3n2)-c2cc(Cl)cc(c2)OCC1 [Compound F88]
14 | < 50% | < 50% | 0.1 to 1 µM | CC1(C)CCCC(N2CCNc3ccn4ncc(c4n3)-c3cc(F)cc(c3)OCC2)C1 (stereo not shown) [Compound F89]
15 | < 50% | < 50% | < 0.1 µM | NC(=O)c1cc2cc(c1)-c1cnn3ccc(nc13)NCCN(C1COC1)CCO2 [Compound F91]
16 | < 50% | < 50% | < 0.1 µM | CCCCN1CCNc2ccn3ncc(c3n2)-c2cc(cc(C(N)=O)c2)OCC1 [Compound F92]
17 | > 50% | < 50% | 0.1 to 1 µM | CC1CNc2ccn3ncc(c3n2)-c2cccc(c2)OCC(=O)N1 (stereo not shown) [Compound F105]
18 |  |  | 0.1 to 1 µM | O=C1COc2cncc(c2)-c2cnn3ccc(nc23)NCCCN1 [Compound F106]
19 |  |  | 0.1 to 1 µM | CC1CNCCOc2cccc(c2)-c2cnn3ccc(nc23)N1 (stereo not shown) [Compound F108]
